Assay results as given in publication PMC3353973 (PLoS ONE, 2012).
Read-outs that look alike come from different tables or passages of the source. Numbered stars: 1 amine (or outer) side, 2 acyl side, 3 side chain; on linkers, the order of the positions; unused ones are H or OH. Bridge positions count the residues as written; N and C are the ends. I, II: the chains in the order shown. * marks the point of attachment. X1 = CC(C)CCC[C@@H](C)[C@H]1CC[C@H]2[C@@H]3CC=C4C[C@@H](OCCN(CCNC(=O)CCOCCOCCOCCOCCNC(=O)CCCN5C(=O)CC([*:1])C5=O)CCNC(=O)CCOCCOCCOCCOCCNC(=O)CCCN5C(=O)CC([*:2])C5=O)CC[C@]4(C)[C@H]3CC[C@]12C; Cam = NC(=O)C*

Tests used:
[1] = system: HIV-1 BaL; details: TZM-bl cells; for IC50: read-out: IC50, inhibition of HIV-1 infectivity, strain BaL, R5 strain BaL, moi 4, luciferase read-out after 48 h
[2] = molecular target: Nipah virus envelope glycoproteins mediated fusion (Nipah virus, UniProt Q9IH63); test: cell-based; format: cell-based
Sequence of Nipah virus envelope glycoproteins mediated fusion (Q9IH63 110-546 limits assumed): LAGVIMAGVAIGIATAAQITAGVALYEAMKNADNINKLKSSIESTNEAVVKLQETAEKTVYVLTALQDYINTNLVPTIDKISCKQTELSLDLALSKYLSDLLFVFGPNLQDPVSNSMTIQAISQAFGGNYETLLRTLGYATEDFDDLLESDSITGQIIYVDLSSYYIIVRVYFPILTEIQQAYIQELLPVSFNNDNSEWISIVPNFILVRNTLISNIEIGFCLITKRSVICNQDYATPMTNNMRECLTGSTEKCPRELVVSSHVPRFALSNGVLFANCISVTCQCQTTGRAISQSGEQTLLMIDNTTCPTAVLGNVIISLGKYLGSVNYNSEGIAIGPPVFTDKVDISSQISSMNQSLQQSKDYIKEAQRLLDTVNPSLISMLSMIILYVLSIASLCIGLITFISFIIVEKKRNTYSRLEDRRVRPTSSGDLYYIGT
Sequence of Nipah virus envelope glycoproteins mediated fusion (Q9IH63 27-109 partner limits assumed): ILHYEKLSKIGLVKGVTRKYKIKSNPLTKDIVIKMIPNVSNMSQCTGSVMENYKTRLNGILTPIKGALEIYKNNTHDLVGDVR

[3] = molecular target: type 3 HPIV envelope glycoproteins mediated fusion (Human parainfluenza 3 virus, UniProt P06828); test: cell-based; format: cell-based, human parainfluenza virus type 3 (HPIV3)
Sequence of type 3 HPIV envelope glycoproteins mediated fusion (P06828 19-109): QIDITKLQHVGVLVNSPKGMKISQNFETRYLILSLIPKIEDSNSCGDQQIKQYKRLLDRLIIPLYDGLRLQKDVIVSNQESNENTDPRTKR
Sequence of type 3 HPIV envelope glycoproteins mediated fusion (P06828 110-539): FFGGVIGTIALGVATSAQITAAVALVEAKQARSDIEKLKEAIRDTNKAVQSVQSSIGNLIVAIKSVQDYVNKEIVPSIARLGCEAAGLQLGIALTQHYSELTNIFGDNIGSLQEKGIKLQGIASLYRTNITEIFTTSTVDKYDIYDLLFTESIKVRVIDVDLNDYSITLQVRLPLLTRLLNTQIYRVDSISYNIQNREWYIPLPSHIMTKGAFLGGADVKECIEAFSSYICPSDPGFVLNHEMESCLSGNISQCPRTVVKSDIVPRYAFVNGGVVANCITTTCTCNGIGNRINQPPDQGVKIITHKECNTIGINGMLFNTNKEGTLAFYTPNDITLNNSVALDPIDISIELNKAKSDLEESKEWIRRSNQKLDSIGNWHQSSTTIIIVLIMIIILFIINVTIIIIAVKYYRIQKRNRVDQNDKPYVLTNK

[4] = system: Nipah virus (isolate UMMC1)
[5] = system: Nipah virus; set-up: species or system golden hamster (Mesocricetus auratus); details: hamster, in vivo

CC[C@H](C)[C@H](NC(=O)[C@H](CC(C)C)NC(=O)[C@H](CO)NC(=O)[C@H](Cc1c[nH]cn1)NC(=O)[C@@H](NC(=O)[C@H](CC(C)C)NC(=O)[C@H](CO)NC(=O)[C@@H](NC(=O)[C@H](Cc1ccc(O)cc1)NC(=O)[C@H](CC(N)=O)NC(=O)[C@H](CC(N)=O)NC(=O)[C@@H](NC(=O)[C@H](CCC(=O)O)NC(=O)[C@H](CCCNC(=N)N)NC(=O)[C@H](CC(=O)O)NC(=O)[C@H](Cc1c[nH]c2ccccc12)NC(=O)[C@H](CCC(=O)O)NC(=O)[C@H](CCSC)NC(=O)[C@H](Cc1c[nH]c2ccccc12)NC(C)=O)[C@@H](C)CC)[C@@H](C)O)[C@@H](C)CC)C(=O)N[C@@H](CCC(=O)O)C(=O)N[C@@H](CCC(=O)O)C(=O)N[C@@H](CO)C(=O)N[C@@H](CCC(N)=O)C(=O)N[C@@H](CC(N)=O)C(=O)N[C@@H](CCC(N)=O)C(=O)N[C@@H](CCC(N)=O)C(=O)N[C@@H](CCC(=O)O)C(=O)N[C@@H](CCCCN)C(=O)N[C@@H](CC(N)=O)C(=O)N[C@@H](CCC(=O)O)C(=O)N[C@@H](CCC(N)=O)C(=O)N[C@@H](CCC(=O)O)C(=O)N[C@@H](CC(C)C)C(=O)N[C@@H](CC(C)C)C(=O)NCC(=O)N[C@@H](CO)C(=O)NCC(=O)N[C@@H](CSCC(N)=O)C(N)=O [HIV-P2]
IC50 [1]: 60.1 ± 84 nM

CC[C@H](C)[C@H](NC(=O)[C@H](CC(C)C)NC(=O)[C@H](CO)NC(=O)[C@H](Cc1c[nH]cn1)NC(=O)[C@@H](NC(=O)[C@H](CC(C)C)NC(=O)[C@H](CO)NC(=O)[C@@H](NC(=O)[C@H](Cc1ccc(O)cc1)NC(=O)[C@H](CC(N)=O)NC(=O)[C@H](CC(N)=O)NC(=O)[C@@H](NC(=O)[C@H](CCC(=O)O)NC(=O)[C@H](CCCNC(=N)N)NC(=O)[C@H](CC(=O)O)NC(=O)[C@H](Cc1c[nH]c2ccccc12)NC(=O)[C@H](CCC(=O)O)NC(=O)[C@H](CCSC)NC(=O)[C@H](Cc1c[nH]c2ccccc12)NC(C)=O)[C@@H](C)CC)[C@@H](C)O)[C@@H](C)CC)C(=O)N[C@@H](CCC(=O)O)C(=O)N[C@@H](CCC(=O)O)C(=O)N[C@@H](CO)C(=O)N[C@@H](CCC(N)=O)C(=O)N[C@@H](CC(N)=O)C(=O)N[C@@H](CCC(N)=O)C(=O)N[C@@H](CCC(N)=O)C(=O)N[C@@H](CCC(=O)O)C(=O)N[C@@H](CCCCN)C(=O)N[C@@H](CC(N)=O)C(=O)N[C@@H](CCC(=O)O)C(=O)N[C@@H](CCC(N)=O)C(=O)N[C@@H](CCC(=O)O)C(=O)N[C@@H](CC(C)C)C(=O)N[C@@H](CC(C)C)C(=O)NCC(=O)N[C@@H](CO)C(=O)NCC(=O)N[C@@H](CSC1CC(=O)N(CCCC(=O)NCCOCCOCCOCCOCCC(=O)NCCN(CCNC(=O)CCOCCOCCOCCOCCNC(=O)CCCN2C(=O)CC(SC[C@H](NC(=O)CNC(=O)[C@H](CO)NC(=O)CNC(=O)[C@H](CC(C)C)NC(=O)[C@H](CC(C)C)NC(=O)[C@H](CCC(=O)O)NC(=O)[C@H](CCC(N)=O)NC(=O)[C@H](CCC(=O)O)NC(=O)[C@H](CC(N)=O)NC(=O)[C@H](CCCCN)NC(=O)[C@H](CCC(=O)O)NC(=O)[C@H](CCC(N)=O)NC(=O)[C@H](CCC(N)=O)NC(=O)[C@H](CC(N)=O)NC(=O)[C@H](CCC(N)=O)NC(=O)[C@H](CO)NC(=O)[C@H](CCC(=O)O)NC(=O)[C@H](CCC(=O)O)NC(=O)[C@@H](NC(=O)[C@H](CC(C)C)NC(=O)[C@H](CO)NC(=O)[C@H](Cc3c[nH]cn3)NC(=O)[C@@H](NC(=O)[C@H](CC(C)C)NC(=O)[C@H](CO)NC(=O)[C@@H](NC(=O)[C@H](Cc3ccc(O)cc3)NC(=O)[C@H](CC(N)=O)NC(=O)[C@H](CC(N)=O)NC(=O)[C@@H](NC(=O)[C@H](CCC(=O)O)NC(=O)[C@H](CCCNC(=N)N)NC(=O)[C@H](CC(=O)O)NC(=O)[C@H](Cc3c[nH]c4ccccc34)NC(=O)[C@H](CCC(=O)O)NC(=O)[C@H](CCSC)NC(=O)[C@H](Cc3c[nH]c4ccccc34)NC(C)=O)[C@@H](C)CC)[C@@H](C)O)[C@@H](C)CC)[C@@H](C)CC)C(N)=O)C2=O)CCO[C@H]2CC[C@@]3(C)C(=CC[C@H]4[C@@H]5CC[C@H]([C@H](C)CCCC(C)C)[C@@]5(C)CC[C@@H]43)C2)C1=O)C(N)=O (stereo partly shown) [HIV-P4]
Potency increase versus the untagged HR-derived peptide (HIV-P2), strain BaL ([1]; ratio of IC50): 6,000 fold
IC50 [1]: 0.01 ± 0.01 nM

Ac-VALDPIDISIVLNKAKSDLEESKEWIRRSNGKLDSI-GSGSG-C(PEG4-Chol)-NH2 [HPIV-P3]
IC50 ([2]; read-out: IC50, inhibition of NiV envelope glycoprotein mediated cell-to-cell fusion): 1 to 10 nM
Fold more potent than the untagged inhibitor (HPIV-P2), HPIV3 fusion [3]: ≈ 10 fold
IC50 ([3]; read-out: IC50, inhibition of HPIV3 envelope glycoprotein mediated cell-to-cell fusion): 10 to 100 nM
IC50 ([4]; read-out: IC50, NiV live virus plaque reduction): 8.02 ± 0.66 nM

Ac-VALDPIDISIVLNKAKSDLEESKEWIRRSNGKLDSIGSGSGC(Cam)-NH2 [HPIV-P2]
IC50 [2]: > 100 nM
IC50 [3]: > 100 nM

I: Ac-VALDPIDISIVLNKAKSDLEESKEWIRRSNGKLDSIGSGSGC-NH2 / II: Ac-VALDPIDISIVLNKAKSDLEESKEWIRRSNGKLDSIGSGSGC-NH2 (linker I:42-II:42 via X1) [HPIV-P4]
Fold more potent than the cholesterol-tagged monomer (HPIV-P3), NiV fusion [2]: ≈ 10 fold
IC50 [2]: < 1 nM
IC50 [3]: < 10 nM
Relative fusion inhibitory potency in words, HPIV3 fusion [3]: considerably more potent than the cholesterol-tagged monomer
Onset of illness / lifespan of NiV-infected hamsters [5]: onset of the illness was considerably delayed in the other four, leading to a significantly extended lifespan
Survival of NiV-infected hamsters [5]: survival of one of the five animals
IC50 ([4]; 1 h): 4.36 ± 1.3 nM
